From US10246444B2, “1,2-dithiolane and dithiol compounds useful in treating mutant EGFR-mediated diseases and conditions” (Sabila Biosciences LLC, priority 2017, dated 2019) come the findings set out here.

pIC50, pKd: −log10 of the molar value. Read-outs that look alike come from different tables or passages of the source. Where only a bound is given, the exact number is not on record here.

Broadly, the pKd is the Kd on a negative log10 scale, so that one unit is a factor of ten. For orientation: pIC50 means the negative decadic logarithm of the IC50, by convention in mol/L.

Assay [1] has as its target EGFR WT (wild type EGFR) (Homo sapiens (Human), UniProt P00533). Kind of assay: KINOMEscan competition binding assay (Kd). Particulars: read-out: Kd Activity Level (EGFR WT).
Description: (§1) The assay is performed by combining three components: DNA-tagged kinase; immobilized ligand; and a test compound. The ability of the test compound to compete with the immobilized ligand is measured via quantitative PCR of the DNA tag.
(§2) For most assays, kinase-tagged T7 phage strains were prepared in an E. coli host derived from the BL21 strain. E. coli were grown to log-phase and infected with T7 phage and incubated with shaking at 32° C. until lysis. The lysates were centrifuged and filtered to remove cell debris. The remaining kinases were produced in HEK-293 cells and subsequently tagged with DNA for qPCR detection. Streptavidin-coated magnetic beads were treated with biotinylated small molecule ligands for 30 minutes at room temperature to generate affinity resins for kinase assays. The liganded beads were blocked with excess biotin and washed with blocking buffer (SeaBlock (Pierce), 1% BSA, 0.05% Tween 20, 1 mM DTT) to remove unbound ligand and to reduce nonspecific binding. […] All reactions were performed in polystyrene 96-well plates in a final volume of 0.135 ml. […] The kinase concentration in the eluates was measured by qPCR.
For assay [2], the target named is T1, EGFR (L858R) (Homo sapiens (Human), UniProt P00533, L858R). Briefly: KINOMEscan competition binding assay (Kd). Particulars: read-out: Kd Activity Level (EGFR L858R).
Description: as §1, §2
Assay [3] deals with T1, EGFR (L858R). Briefly: KinaseSeeker rabbit reticulocyte lysate competition binding assay (IC50).
Description: (§3) Luminescence readout translates into a highly sensitive and robust assay with low background and minimal interference from test compounds.
(§4) 10 mM stock solutions of test compounds were serially diluted in DMSO to make assay stocks. Prior to initiating IC50 determinations, the test compounds were evaluated for false positive against split-luciferase.
(§5) For kinase assays, Cfluc-kinase was translated along with Fos-Nfluc using a cell-free system (rabbit reticulocyte lysate) at 30° C. for 90 min. 24 uL aliquot of this lysate containing either 1 uL of DMSO (for no-inhibitor control) or compound solution in DMSO was incubated for 30 minutes at room temperature followed by 1 hour in presence of a kinase specific probe. 80 uL of luciferin assay reagent was added to each solution and luminescence was immediately measured on a luminometer.
(§6) The % Activity was plotted against compound concentration and the IC50 was determined for each compound using a 7-point curve (Jester, B. W.; et. al. J. Am. Chem. Soc. 2010, 132, 11727-11735. Jester, B. W.; et. al. J. Med. Chem. 2012, 55, 1526-1537).
Assay [4] concerns the target EGFR WT (Homo sapiens (Human), UniProt P00533). The assay is described as above.
Description: as §3, §4, §5, §6

EGFR WT, sequence (P00533 25-1210): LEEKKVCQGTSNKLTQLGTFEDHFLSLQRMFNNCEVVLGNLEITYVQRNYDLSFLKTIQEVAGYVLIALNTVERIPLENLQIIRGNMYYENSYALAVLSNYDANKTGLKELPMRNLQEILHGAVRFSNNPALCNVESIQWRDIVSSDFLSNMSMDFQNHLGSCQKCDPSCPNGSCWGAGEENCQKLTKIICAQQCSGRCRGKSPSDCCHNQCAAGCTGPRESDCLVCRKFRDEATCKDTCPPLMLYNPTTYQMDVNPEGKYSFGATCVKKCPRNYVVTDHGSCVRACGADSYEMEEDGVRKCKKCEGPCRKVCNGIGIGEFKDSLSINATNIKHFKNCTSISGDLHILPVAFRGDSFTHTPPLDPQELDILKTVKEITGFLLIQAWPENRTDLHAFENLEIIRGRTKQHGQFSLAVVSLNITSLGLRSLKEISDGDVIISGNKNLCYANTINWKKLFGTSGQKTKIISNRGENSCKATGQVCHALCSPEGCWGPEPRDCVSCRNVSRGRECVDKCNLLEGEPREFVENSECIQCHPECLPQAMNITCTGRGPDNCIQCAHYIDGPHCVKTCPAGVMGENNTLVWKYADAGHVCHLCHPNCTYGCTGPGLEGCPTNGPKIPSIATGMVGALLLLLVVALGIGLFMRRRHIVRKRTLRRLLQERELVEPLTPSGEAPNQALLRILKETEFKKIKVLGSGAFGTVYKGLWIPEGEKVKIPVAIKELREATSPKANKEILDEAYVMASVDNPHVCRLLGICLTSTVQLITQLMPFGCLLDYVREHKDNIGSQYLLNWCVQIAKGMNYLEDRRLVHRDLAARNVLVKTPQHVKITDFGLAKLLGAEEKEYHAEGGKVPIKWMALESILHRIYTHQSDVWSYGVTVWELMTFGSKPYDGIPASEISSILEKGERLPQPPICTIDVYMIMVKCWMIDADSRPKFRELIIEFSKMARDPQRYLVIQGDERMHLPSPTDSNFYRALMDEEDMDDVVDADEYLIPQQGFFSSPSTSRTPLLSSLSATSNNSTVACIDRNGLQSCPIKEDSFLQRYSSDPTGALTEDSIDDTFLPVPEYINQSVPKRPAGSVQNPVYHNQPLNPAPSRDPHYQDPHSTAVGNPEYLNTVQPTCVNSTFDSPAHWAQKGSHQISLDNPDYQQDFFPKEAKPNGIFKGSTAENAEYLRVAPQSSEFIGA
EGFR WT (wild type EGFR), sequence (P00533 25-1210): as above
T1 sequence (P00533 25-1210 L858R): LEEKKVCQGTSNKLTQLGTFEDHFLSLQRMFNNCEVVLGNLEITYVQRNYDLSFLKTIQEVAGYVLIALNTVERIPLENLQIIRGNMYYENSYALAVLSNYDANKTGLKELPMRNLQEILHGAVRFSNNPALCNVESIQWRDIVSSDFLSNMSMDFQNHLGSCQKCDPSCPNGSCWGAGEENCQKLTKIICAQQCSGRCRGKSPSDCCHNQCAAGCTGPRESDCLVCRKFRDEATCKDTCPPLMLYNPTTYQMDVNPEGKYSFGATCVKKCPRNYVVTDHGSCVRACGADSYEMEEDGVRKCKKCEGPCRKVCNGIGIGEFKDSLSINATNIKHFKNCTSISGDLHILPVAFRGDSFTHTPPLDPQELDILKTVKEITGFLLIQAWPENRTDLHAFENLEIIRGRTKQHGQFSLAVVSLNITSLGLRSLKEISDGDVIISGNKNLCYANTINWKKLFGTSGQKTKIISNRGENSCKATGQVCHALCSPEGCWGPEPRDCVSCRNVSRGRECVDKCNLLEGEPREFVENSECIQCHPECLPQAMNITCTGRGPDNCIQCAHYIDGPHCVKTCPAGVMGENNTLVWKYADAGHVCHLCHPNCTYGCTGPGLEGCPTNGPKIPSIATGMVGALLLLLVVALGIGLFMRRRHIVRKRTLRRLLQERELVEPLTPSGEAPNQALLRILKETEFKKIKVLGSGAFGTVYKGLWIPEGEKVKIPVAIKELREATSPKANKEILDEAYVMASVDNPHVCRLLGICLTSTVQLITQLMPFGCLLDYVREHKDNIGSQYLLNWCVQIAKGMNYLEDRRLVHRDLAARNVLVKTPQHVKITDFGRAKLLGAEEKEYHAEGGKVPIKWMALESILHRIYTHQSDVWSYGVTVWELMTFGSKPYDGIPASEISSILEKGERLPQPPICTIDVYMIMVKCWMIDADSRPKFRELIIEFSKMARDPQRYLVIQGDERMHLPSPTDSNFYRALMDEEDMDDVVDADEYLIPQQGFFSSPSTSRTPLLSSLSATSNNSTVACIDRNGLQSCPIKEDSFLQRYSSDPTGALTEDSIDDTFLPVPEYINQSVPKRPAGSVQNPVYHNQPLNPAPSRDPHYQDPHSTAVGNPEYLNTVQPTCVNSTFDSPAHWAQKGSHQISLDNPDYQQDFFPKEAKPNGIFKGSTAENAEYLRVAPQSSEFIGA

Consider `CC1(C)OC[C@H](COc2cc3ncc(C#N)c(Nc4ccc(OCc5cccc(F)c5)c(Cl)c4)c3cc2NC(=O)C[C@@H]2CCSS2)O1` (single isomer, unassigned; isomer 1) [80 isomer 1], for which the pKd in assay [1] and in assay [2] was 7.00 to 9.00 in each case.
With `CC1(C)OC[C@@H](COc2cc3ncc(C#N)c(Nc4ccc(OCc5cccc(F)c5)c(Cl)c4)c3cc2NC(=O)CC2CCSS2)O1` (single isomer, unassigned; isomer 1) [84 isomer 1], the pKd in assay [1] and in assay [2] was 7.00 to 9.00 in each case.
For `CC1(C)OC[C@H](COc2cc3ncc(C#N)c(Nc4ccc(OCc5cccc(F)c5)c(Cl)c4)c3cc2NC(=O)C[C@H]2CCSS2)O1` (single isomer, unassigned; isomer 2) [80 isomer 2], the pKd in assay [1] and in assay [2] was 7.00 to 9.00 each time.
As for `CC1(C)OC[C@H](COc2cc3ncc(C#N)c(Nc4ccc(OCc5cccc(F)c5)c(Cl)c4)c3cc2NC(=O)CC2CCSS2)O1` (single isomer, unassigned; isomer 2) [84 isomer 2], the pKd in assay [1] and in assay [2] was 7.00 to 9.00 in each case.
For `CCOc1cc2ncc(C#N)c(Nc3ccc(F)c(Cl)c3)c2cc1NC(=O)CC(CCSCc1ccccc1)SCc1ccccc1` (centres unmarked) [Example 38, 3,5-Bis(benzylthio)-N-(4-((3-chloro-4-fluorophenyl)amino)-3-cyano-7-ethoxyquinolin-6-yl)pentanamide], in assay [3], the pIC50 was 5.00 to 6.00.
As for `CCOc1cc2ncc(C#N)c(Nc3ccc(F)c(Cl)c3)c2cc1NC(=O)CC1CCSS1` (centres unmarked) [Example 39, N-(4-((3-Chloro-4-fluorophenyl)amino)-3-cyano-7-ethoxyquinolin-6-yl)-2-(1,2-dithiolan-3-yl)acetamide], the pIC50 in assay [3] was 6.00 to 7.00.
For `CCOc1cc2ncc(C#N)c(Nc3ccc(OCc4cccc(F)c4)c(Cl)c3)c2cc1NC(=O)CCCCC1CCSS1` (centres unmarked) [Example 44], the negative logarithm of the IC50 (pIC50) in assay [3] was 7.00 to 9.00.
On to `CC(=O)Nc1ccc2ncc(C#N)c(Nc3ccc(OCc4cccc(F)c4)c(Cl)c3)c2c1` [Example 58, N-(4-((3-Chloro-4-((3-fluorobenzyl)oxy)phenyl)amino)-3-cyanoquinolin-6-yl)acetamide], for which the pIC50 in assay [3] (read-out: IC50 Activity level EGFR L858R, KinaseSeeker, Table 18) was under 5.00.
`CC(=O)SCC(CSC(C)=O)C(=O)Nc1ccc2ncc(C#N)c(Nc3ccc(OCc4cccc(F)c4)c(Cl)c3)c2c1` [Example 60, S,S′-(2-((4-((3-Chloro-4-((3-fluorobenzyl)oxy)phenyl)amino)-3-cyanoquinolin-6-yl)carbamoyl)propane-1,3-diyl)diethanethioate]: the pIC50 in assay [3] was 7.00 to 9.00; in assay [4], 6.00 to 7.00.
On to `CC1(C)OC[C@H](COc2cc3ncc(C#N)c(Nc4ccc(OCc5cccc(F)c5)c(Cl)c4)c3cc2NC(=O)CC2CCSS2)O1` (stereo partly drawn) [Example 79, N-(4-((3-Chloro-4-((3-fluorobenzyl)oxy)phenyl)amino)-3-cyano-7-(((S)-2,2-dimethyl-1,3-dioxolan-4-yl)methoxy)quinolin-6-yl)-2-(1,2-dithiolan-3-yl)acetamide], for which the pKd in assay [1] and in assay [2] was 7.00 to 9.00 each time.
Turning to `COc1cc2ncnc(Nc3ccc(OCc4cccc(F)c4)c(Cl)c3)c2cc1NC(=O)C(CSC(C)=O)CSC(C)=O` [Example 109, S,S′-(2-((4-((3-Chloro-4-((3-fluorobenzyl)oxy)phenyl)amino)-7-methoxyquinazolin-6-yl)carbamoyl)propane-1,3-diyl)diethanethioate], the pIC50 in assay [3] and in assay [4] was 7.00 to 9.00 throughout.
Turning to `COc1cc2ncnc(Nc3ccc(OCc4cccc(F)c4)c(Cl)c3)c2cc1NC(=O)C1CSSC1` [Example 110, N-(4-((3-Chloro-4-((3-fluorobenzyl)oxy)phenyl)amino)-7-methoxyquinazolin-6-yl)-1,2-dithiolane-4-carboxamide], the pIC50 in assay [3] and in assay [4] was 7.00 to 9.00 throughout.
